Legend:
Conditions in all cases: 72 h
Vero E6 [1] = test: relative viability EC50 (midpoint between 100% and the lowest measured viability); higher = less toxic
HepG2 [2] = test: as above
Caco-2 [3] = test: as above
Calu-3 [4] = test: as above
U2OS [5] = test: as above
Vero E6 [6] = test: cell viability relative to DMSO; higher = less toxic
HepG2 [7] = test: as above
Caco-2 [8] = test: as above
Calu-3 [9] = test: as above
U2OS [10] = test: as above
Vero E6 [11] = test: drug sensitivity score (DSS) for viability; higher = more toxic; extreme values may be limits of the assay
HepG2 [12] = test: as above
Caco-2 [13] = test: as above
Calu-3 [14] = test: as above
U2OS [15] = test: as above

Row | Compound | relative viability EC50 (Vero E6 [1]) [µM] | relative viability EC50 (HepG2 [2]) [µM] | relative viability EC50 (Caco-2 [3]) [µM] | relative viability EC50 (Calu-3 [4]) [µM] | relative viability EC50 (U2OS [5]) [µM] | cell viability (Vero E6 [6]; 1 nM) [%] | cell viability (Vero E6 [6]; 10 nM) [%] | cell viability (Vero E6 [6]; 100 nM) [%] | cell viability (Vero E6 [6]; 1000 nM) [%] | cell viability (Vero E6 [6]; 10000 nM) [%] | cell viability (HepG2 [7]; 1 nM) [%] | cell viability (HepG2 [7]; 10 nM) [%] | cell viability (HepG2 [7]; 100 nM) [%] | cell viability (HepG2 [7]; 1000 nM) [%] | cell viability (HepG2 [7]; 10000 nM) [%] | cell viability (Caco-2 [8]; 1 nM) [%] | cell viability (Caco-2 [8]; 10 nM) [%] | cell viability (Caco-2 [8]; 100 nM) [%] | cell viability (Caco-2 [8]; 1000 nM) [%] | cell viability (Caco-2 [8]; 10000 nM) [%] | cell viability (Calu-3 [9]; 1 nM) [%] | cell viability (Calu-3 [9]; 10 nM) [%] | cell viability (Calu-3 [9]; 100 nM) [%] | cell viability (Calu-3 [9]; 1000 nM) [%] | cell viability (Calu-3 [9]; 10000 nM) [%] | cell viability (U2OS [10]; 1 nM) [%] | cell viability (U2OS [10]; 10 nM) [%] | cell viability (U2OS [10]; 100 nM) [%] | cell viability (U2OS [10]; 1000 nM) [%] | cell viability (U2OS [10]; 10000 nM) [%] | drug sensitivity score (Vero E6 [11]) | drug sensitivity score (HepG2 [12]) | drug sensitivity score (Caco-2 [13]) | drug sensitivity score (Calu-3 [14]) | drug sensitivity score (U2OS [15])
1 | CC1(C)C(=O)N(CCN2CCC(C(=O)c3ccc(F)cc3)CC2)c2ccccc21 | > 10 | > 10 | > 10 | > 10 | > 10 | 96.1 | 102 | 91.8 | 94.2 | 106 | 95.3 | 102 | 90.8 | 97 | 87.8 | 88.5 | 102 | 104 | 97.2 | 91.6 | 99.5 | 91.4 | 90.6 | 98.4 | 89.8 | 97.7 | 96.3 | 98.2 | 95.9 | 97.8 | 0 | 0 | 0 | 0 | 0
2 | CC1=C(/C=C/C(=C/C=C/C(C)=C/C(=O)O)c2ccc(C)cc2)C(C)(C)CCC1 | > 10 | > 10 | > 10 | > 10 |  | 99.1 | 95.2 | 101 | 97.2 | 108 | 106 | 103 | 98.2 | 94.2 | 98.4 | 90.9 | 94.2 | 95.4 | 98.4 | 97.1 | 94.6 | 106 | 112 | 102 | 99.3 |  |  |  |  |  | 0 | 0 | 0 | 0 | 
3 | CCCCCCNC(=O)Nc1ccc(S(=O)(=O)Nc2ccc(CCNC[C@H](O)COc3ccc(O)cc3)cc2)cc1 | > 10 | > 10 | > 10 | > 10 | > 10 | 92.7 | 95.8 | 91 | 96.2 | 110 | 95.6 | 110 | 92.1 | 103 | 107 | 102 | 82.7 | 102 | 102 | 104 | 105 | 96.8 | 93.5 | 102 | 88.3 | 106 | 96.6 | 101 | 99.9 | 103 | 0 | 0 | 0 | 0 | 0
4 | CCOc1ccn(-c2ccc(F)cc2)c(=O)c1C(=O)Nc1ccc(Oc2ccnc(N)c2Cl)c(F)c1 | > 10 |  | > 10 | > 10 | > 10 | 103 | 99.1 | 101 | 98.8 | 81.5 | 110 | 116 | 108 | 96.9 | 68.5 | 101 | 90.4 | 90.3 | 103 | 75.1 | 93.5 | 103 | 101 | 96.1 | 94 | 102 | 98.4 | 103 | 99.2 | 98 | 0.6 | 1.9 | 0.8 | 0 | 0
5 | CCS(=O)(=O)N1CCC[C@@H]2CN3CCc4cc(OC)ccc4[C@@H]3C[C@@H]21 | > 10 | > 10 | > 10 | > 10 | > 10 | 96.3 | 103 | 97.1 | 93.8 | 105 | 99.9 | 113 | 109 | 92.2 | 102 | 94.7 | 94.2 | 95 | 104 | 91.7 | 103 | 90.4 | 109 | 101 | 103 | 99.5 | 103 | 108 | 108 | 106 | 0 | 0 | 0 | 0 | 0
6 | CN(C(=O)CN1C(=O)COc2cc(Cl)c(Cl)cc21)[C@@H](CN1CCCC1)c1ccc(-c2cccc(C(N)=O)c2)cc1 | 2.94 | 3.09 | 2.94 | 3.79 | 2.68 | 96.9 | 97 | 94.9 | 97.1 | 2.8 | 95 | 104 | 91.5 | 99 | 10.5 | 97.9 | 99 | 101 | 97.1 | 7.2 | 109 | 111 | 102 | 114 | 7 | 100 | 97.1 | 104 | 94.1 | 3.5 | 5.8 | 5.1 | 5.5 | 4.3 | 6.2
7 | COC1(C2=NCCN2)COc2ccccc2O1 (stereo unspecified) | > 10 | > 10 | > 10 | > 10 | > 10 | 103 | 96 | 93.3 | 100 | 98.2 | 109 | 109 | 91.2 | 107 | 99.3 | 99.5 | 91.5 | 101 | 89.7 | 91.4 | 100 | 103 | 96 | 93 | 94.6 | 96.2 | 95.1 | 103 | 97.9 | 101 | 0 | 0 | 0 | 0 | 0
8 | COc1ccc2cccc(N3CCN(CCNC(=O)c4ccc(F)cc4)CC3)c2c1 | > 10 | > 10 | > 10 | > 10 | > 10 | 103 | 104 | 97.5 | 94 | 89.3 | 99.2 | 98.9 | 97.4 | 95.4 | 89.5 | 98.3 | 95.3 | 98.3 | 90.6 | 86.2 | 96.6 | 105 | 104 | 106 | 83 | 95.7 | 103 | 92.7 | 96.4 | 90.4 | 0 | 0 | 0.3 | 0.2 | 0
9 | COc1cccc(Nc2ncnn3ccc(CN4CC[C@@H](N)[C@H](O)C4)c23)c1 | 0.292 | > 10 | 0.335 | 0.0837 |  | 100 | 89.4 | 65.7 | 51.4 | 14.8 | 105 | 102 | 102 | 99 | 87.9 | 89.2 | 91 | 81.2 | 76.1 | 48.6 | 103 | 94.4 | 46.5 | 23.7 | 9.1 | 96.2 | 96.5 | 93.2 | 92.6 | 55.7 | 14.4 | 0.1 | 7.5 | 21.9 | 3.5
10 | COc1ccccc1N1CCN(CCCCNC(=O)c2ccc(-c3ccc(C(C)=O)cc3)cc2)CC1 | > 10 | > 10 | > 10 | > 10 | > 10 | 104 | 99.5 | 101 | 102 | 95.5 | 104 | 104 | 96.4 | 94.6 | 83.8 | 93.7 | 94.5 | 119 | 106 | 110 | 101 | 92.6 | 110 | 102 | 96.5 | 101 | 95.8 | 102 | 98.4 | 101 | 0 | 0.5 | 0 | 0 | 0
11 | C[C@@H](NCc1cc(Br)cc2nc(O)c(O)nc12)P(=O)(O)O | > 10 | > 10 | > 10 | > 10 | > 10 | 105 | 105 | 103 | 98.8 | 96.1 | 94.2 | 94 | 99.4 | 93.3 | 89.2 | 97 | 100 | 109 | 94.4 | 97.5 | 103 | 86 | 81 | 110 | 102 | 107 | 97.2 | 96.6 | 92.5 | 98.4 | 0 | 0 | 0 | 0 | 0
12 | Cc1c(C)c(NCC(=O)N(C)C2CCN(Cc3ccc(C(N)=O)cc3)CC2)c(C)c(C)c1N | > 10 | > 10 | > 10 | > 10 | > 10 | 96.1 | 97.7 | 92.4 | 101 | 105 | 97.5 | 100 | 101 | 102 | 96.7 | 98.7 | 99.6 | 92.7 | 96.6 | 112 | 105 | 91 | 101 | 104 | 103 | 100 | 97 | 102 | 99.2 | 98.1 | 0 | 0 | 0 | 0 | 0
13 | Cc1ccc(-n2sc(=O)n(Cc3ccc(F)cc3)c2=O)cc1 | > 10 | > 10 | > 10 | > 10 | > 10 | 96.4 | 97.7 | 97.1 | 99.1 | 93.5 | 89.2 | 107 | 95.9 | 96.1 | 96.1 | 99.1 | 97.7 | 98.4 | 100 | 95.9 | 104 | 83.1 | 110 | 98.9 | 94.3 | 97.9 | 98.7 | 99.6 | 96.1 | 108 | 0 | 0 | 0 | 0 | 0
14 | Nc1ncc(Cc2ccc(Br)cc2)s1 | > 10 | > 10 | > 10 | > 10 | > 10 | 99.9 | 94 | 100 | 92.2 | 107 | 98 | 88.6 | 115 | 96.3 | 99.9 | 97.3 | 95.1 | 85.2 | 99.3 | 96.7 | 95.6 | 91.8 | 103 | 94.3 | 119 | 93.5 | 102 | 94.9 | 101 | 102 | 0 | 0 | 0 | 0 | 0
15 | O=C(NCCCN1CCCCCC1)C(c1ccccc1)C1CCCCC1 (stereo unspecified) | > 10 | > 10 | > 10 | > 10 | > 10 | 95.8 | 96.1 | 96.5 | 99.6 | 94.9 | 107 | 107 | 100 | 89 | 84.7 | 101 | 101 | 105 | 107 | 95 | 111 | 94.1 | 102 | 104 | 98.8 | 104 | 101 | 101 | 106 | 95.7 | 0 | 1 | 0 | 0 | 0

Source: the supplement of paper PMC13380429
